Data reported in patent publication US10071967B2, “N-cycloalkyl-N-{[2-(1-substitutedcycloalkyl)phenyl]methylene}-(thio)carboxamide derivatives” (BAYER CROPSCIENCE AKTIENGESELLSCHAFT, priority 2013, dated 2018).

What was measured:
Puccinia recondita = test: In vivo preventive test on Puccinia recondita (brown rust on wheat); settings: for Efficacy: Table A1, dose 100 ppm, examples from WO-2012/052490 formulated in DMF with 2% of alkylarylpolyglycolether; for protection: dose of 100 ppm of active ingredient, comparison with WO-2012/052490
Experimental: Example A: In Vivo Preventive Test on Puccinia recondita (Brown Rust on Wheat) […]
Emulsifier: 1 μL of Tween® 80 per mg of active ingredient
(§1) The active ingredients are made soluble and homogenized in a mixture of Dimethyl sulfoxide/Acetone/Tween® 80 and then diluted in water to the desired concentration.
The young plants of wheat are treated by spraying the active ingredient prepared as described above. Control plants are treated only with an aqueous solution of Acetone/Dimethyl sulfoxide/Tween® 80. After 24 hours, the plants are contaminated by spraying the leaves with an aqueous suspension of Puccinia recondita spores. The contaminated wheat plants are incubated for 24 hours at 20° C. and at 100% relative humidity and then for 10 days at 20° C. and at 70-80% relative humidity.
(§2) The test is evaluated 11 days after the inoculation. 0% means an efficacy which corresponds to that of the control plants while an efficacy of 100% means that no disease is observed.

Uromyces appendiculatus = test: In vivo preventive test on Uromyces appendiculatus (bean rust); settings: for Efficacy: Table B1, dose 10 ppm
Experimental: Example B: In Vivo Preventive Test on Uromyces appendiculatus (Bean Rust)
Solvent: 5% by volume of Dimethyl sulfoxide • 10% by volume of Acetone
Emulsifier: […] of Tween® 80 per mg of active ingredient
as §1
The young plants of bean are treated by spraying the active ingredient prepared as described above.
Control plants are treated only with an aqueous solution of Acetone/Dimethyl sulfoxide/Tween® 80.
After 24 hours, the plants are contaminated by spraying the leaves with an aqueous suspension of Uromyces appendiculatus spores. The contaminated bean plants are incubated for 24 hours at 20° C. and at 100% relative humidity and then for 10 days at 20° C. and at 70-80% relative humidity.
as §2

[1] = log P by HPLC on a reversed-phase column (C 18), EEC Directive 79/831 Annex V.A8; assay type: physicochemical; settings: HPLC, reversed-phase column (C 18), 40° C.; 0.1% aqueous formic acid and acetonitrile, linear gradient 10% to 90% acetonitrile
Outline: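 Compounds are eluted at 40° C using 0.1% aqueous formic acid and acetonitrile in a linear gradient from 10% to 90% acetonitrile. Unbranched alkan-2-ones bearing 3 to 16 carbons with known log P serve as calibrants. Each log P is interpolated linearly from retention times of the two bracketing alkanones.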

Row | Structure (SMILES) | Efficacy (Puccinia recondita) [%] | protection (Puccinia recondita) | Efficacy (Uromyces appendiculatus) [%] | protection (Uromyces appendiculatus; dose of ppm of active ingredient (number not given), comparison with WO-2007/087906, text) | logP [1]
1 | Cn1nc(C(F)F)c(C(=O)NCc2ccccc2C2CC2)c1Cl [66 from WO-2012/052490, 5-chloro-N-(2-cyclo-propylbenzyl)-3-(difluoromethyl)-1-methyl-1H-pyrazole-4-carboxamide] | 0 | no protection | – | – | –
2 | Cc1nn(C)c(F)c1C(=O)N(Cc1ccccc1C1CCCCC1)C1CC1 [399 from WO-2007/087906, N-(2-cyclohexylbenzyl)-N-cyclopropyl-5-fluoro-1,3-dimethyl-1H-pyrazole-4-carboxamide, reference compound] | – | – | 0 | no protection | –
3 | Cn1cc(C(=O)N(Cc2cc(Cl)ccc2C2(C)CC2)C2CC2)c(C(F)F)n1 [I.029, N-[5-chloro-2-(1-methylcyclopropyl)benzyl]-N-cyclopropyl-3-(difluoromethyl)-1-methyl-1H-pyrazole-4-carboxamide] | – | – | 98 | – | –
4 | Cc1ccc(C2(C)CC2)c(CN(C(=O)c2cn(C)nc2C(F)F)C2CC2)c1 [I.033] | – | – | 100 | – | 3.74
5 | CCC1(c2ccccc2CN(C(=O)c2cn(C)nc2C(F)F)C2CC2)CC1 [I.067] | 98 | at least 98% | – | – | –
